Assay results from ChEMBL document CHEMBL1157822, “Synthesis and SAR of novel isoquinoline CXCR4 antagonists with potent anti-HIV activity” (Bioorg Med Chem Lett, 2010).
The source made the active and inactive calls. The rule behind the calls is not given here.

How the values were obtained:
[1] = test system: Human immunodeficiency virus 1; assay: Antiviral activity against HIV1 3B infected in human HOS cells expressing human CXCR4/CCR5/CD4/pHIV-LTR luciferase assessed as inhibition of viral infection to cells; format: functional, organism-based; conditions: Human immunodeficiency virus 1, 3B
[2] = Cytotoxicity against human HOS cells expressing human CXCR4/CCR5/CD4/pHIV-LTR luciferase; format: cell-based
[3] = Clearance in rat at 1 mg/kg, iv; format: ADME, organism-based; design: dose 1 mg/kg, route intravenous; conditions: in vivo
[4] = Oral bioavailability in rat at 3 mg/kg; format: ADME, organism-based; conditions: in vivo
[5] = Volume of distribution in rat at 1 mg/kg, iv; format: ADME, organism-based; design: dose 1 mg/kg, route intravenous; conditions: in vivo
[6] = Half life in rat at 1 mg/kg, iv; format: ADME, organism-based; design: dose 1 mg/kg, route intravenous; conditions: in vivo
[7] = target: T1, C-X-C chemokine receptor type 4 (Homo sapiens, UniProt P61073); assay: Antagonist activity at human CXCR4 expressed in HEK293 cells; format: functional, cell-based
T1 sequence (P61073 whole entry): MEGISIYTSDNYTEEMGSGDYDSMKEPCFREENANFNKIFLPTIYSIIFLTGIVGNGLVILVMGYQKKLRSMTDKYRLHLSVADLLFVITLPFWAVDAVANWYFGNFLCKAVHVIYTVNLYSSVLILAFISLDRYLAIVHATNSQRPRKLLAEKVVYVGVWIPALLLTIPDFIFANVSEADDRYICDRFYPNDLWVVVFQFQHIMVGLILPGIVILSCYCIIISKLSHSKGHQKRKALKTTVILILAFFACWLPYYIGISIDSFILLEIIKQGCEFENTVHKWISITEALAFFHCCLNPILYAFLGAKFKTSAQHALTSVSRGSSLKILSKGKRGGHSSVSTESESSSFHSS

[8] = target: T1, C-X-C chemokine receptor type 4; assay: Binding affinity to human CXCR4 expressed in HEK293 cells; format: cell-based

SMILES | IC50 [1] [µM] | CC50 [2] [µM] | clearance [3] [mL/min/kg] | bioavailability [4] [%] | Vd [5] [L/kg] | half-life [6] [h] | Activity [7] | IC50 [8] [µM]
CN(Cc1ncc2ccccc2c1CCCNS(C)(=O)=O)[C@H]1CCCc2cccnc21 | 0.016 | 0.69 | 9.5 | 4 | 1.4 | 5.8 |  | 
NCCCCN(Cc1ccccn1)C1CCCc2cccnc21 (racemic) | 0.07 | 11 |  |  |  |  |  | 
Cn1cncc1CN(CCCCN)C1CCCc2cccnc21 (racemic) | > 20 | > 20 |  |  |  |  |  | 
NCCCCN(Cc1nc2ccccc2[nH]1)C1CCCc2cccnc21 (racemic) | 0.023 | 13 |  |  |  |  | Active | 
CN1CCC[C@@H]1C(=O)NCc1c(CN(C)[C@H]2CCCc3cccnc32)ncc2ccccc12 | 0.012 | 0.69 |  |  |  |  |  | 
CN(Cc1ncc2ccccc2c1C#N)[C@H]1CCCc2cccnc21 | 0.072 | 1.3 |  |  |  |  |  | 
CN(C)CCCc1c(CN(C)[C@H]2CCCc3cccnc32)ncc2ccccc12 | 0.005 | 0.65 | 6.1 | 6 | 2.9 | 2.9 | Active | 0.0034
NCCCCN(Cc1cccnc1)C1CCCc2cccnc21 (racemic) | > 20 | > 20 |  |  |  |  |  | 
CN(C)CC(=O)NCc1c(CN(C)[C@H]2CCCc3cccnc32)ncc2ccccc12 | 0.012 | 0.48 | 11 | 10 | 1.5 | 1.5 | Active | 0.016
NCCCCN(Cc1ccc2ccccc2n1)C1CCCc2cccnc21 (racemic) | 0.034 | 12 |  |  |  |  |  | 
NCCCCN(Cc1nc2ccccc2s1)C1CCCc2cccnc21 (racemic) | 0.2 | 13 |  |  |  |  |  | 
CN(Cc1ncc2ccccc2c1CCCNC(=N)N)[C@H]1CCCc2cccnc21 | 0.017 | 6.5 |  |  |  |  |  | 
CN(Cc1ncc2ccccc2c1CNS(C)(=O)=O)[C@H]1CCCc2cccnc21 | 0.041 | 2 |  |  |  |  |  | 
NCCCCN(Cc1nccc2ccccc12)C1CCCc2cccnc21 (racemic) | 0.011 | 8.2 |  |  |  |  |  | 
NCCCCN(Cc1nccs1)C1CCCc2cccnc21 (racemic) | 0.34 | 9.7 |  |  |  |  |  | 
CN(Cc1ncc2ccccc2c1CCCN)[C@H]1CCCc2cccnc21 | 0.012 | 1 |  |  |  |  |  | 
NCCCCN(Cc1cc2ccccc2cn1)C1CCCc2cccnc21 (racemic) | 0.012 | 13 |  |  |  |  |  | 
CN(Cc1ncc2ccccc2c1CCC#N)[C@H]1CCCc2cccnc21 | 0.021 | 0.95 |  |  |  |  |  | 
CN(Cc1cc2ccccc2cn1)[C@H]1CCCc2cccnc21 | 0.16 | 0.65 |  |  |  |  |  | 
NCCCCN(Cc1cn2ccccc2n1)C1CCCc2cccnc21 (racemic) | 0.042 | > 20 |  |  |  |  |  | 
CN1CCC[C@H]1C(=O)NCc1c(CN(C)[C@H]2CCCc3cccnc32)ncc2ccccc12 | 0.044 | 0.54 |  |  |  |  |  | 
CN(C)C(=O)NCCCc1c(CN(C)[C@H]2CCCc3cccnc32)ncc2ccccc12 | 0.038 | 0.75 | 16 | 20 | 1.7 | 3.1 |  | 
Cn1ccnc1CN(CCCCN)C1CCCc2cccnc21 (racemic) | 0.12 | > 20 |  |  |  |  |  | 
CN(C)Cc1c(CN(C)[C@H]2CCCc3cccnc32)ncc2ccccc12 | 0.048 | 5.9 |  |  |  |  |  | 
CN(Cc1ncc2ccccc2c1CN)[C@H]1CCCc2cccnc21 | 0.027 | 3.1 |  |  |  |  |  | 
CN(Cc1ncc2ccccc2c1CNC(=N)N)[C@H]1CCCc2cccnc21 | 0.02 | 9 | 16 | 0 | 9 | 12 |  | 
